Measurements as given in ChEMBL document CHEMBL1147885, “A novel noninvasive method for assessing glutathione-conjugate efflux systems in the brain” (Bioorg Med Chem, 2007).

How the values were obtained:
Type in all cases: ADME, organism-based
Brain [1] = test: Metabolic stability in intravenously dosed Wistar rat brain assessed as radioactivity remained in unchanged form after 15 mins by TLC; settings: in vivo, iv, 0.25 h
Brain [2] = test: Metabolic stability in intravenously dosed Wistar rat brain assessed as metabolite level after 60 mins by HPLC; settings: in vivo, iv, 1 h
Brain [3] = test: Metabolic stability in intravenously dosed Wistar rat brain assessed as metabolite level after 15 mins by HPLC; settings: in vivo, iv, 0.25 h

Stability (Brain [1]): 80%
Stability (Brain [2]): 80%
Stability (Brain [3]): 80%
SMILES: [14CH3]n1cnc2ncnc(Cl)c21
